Measured values: ChEMBL document CHEMBL4627267, “A novel series of cysteine-dependent, allosteric inverse agonists of the nuclear receptor RORγt” (Bioorg Med Chem Lett, 2020)
The source made the active and inactive calls. The rule behind the calls is not given here.

Experiments:
[1] = target: T1, Nuclear receptor ROR-beta (Homo sapiens) (UniProt Q92753); assay: Inverse agonist activity at human full-length RORbeta expressed in Jurkat cells co-transfected with 5 copies of ROR response element after 18 hrs by luciferase based reporter gene assay; assay type: cell-based
T1 sequence (whole entry): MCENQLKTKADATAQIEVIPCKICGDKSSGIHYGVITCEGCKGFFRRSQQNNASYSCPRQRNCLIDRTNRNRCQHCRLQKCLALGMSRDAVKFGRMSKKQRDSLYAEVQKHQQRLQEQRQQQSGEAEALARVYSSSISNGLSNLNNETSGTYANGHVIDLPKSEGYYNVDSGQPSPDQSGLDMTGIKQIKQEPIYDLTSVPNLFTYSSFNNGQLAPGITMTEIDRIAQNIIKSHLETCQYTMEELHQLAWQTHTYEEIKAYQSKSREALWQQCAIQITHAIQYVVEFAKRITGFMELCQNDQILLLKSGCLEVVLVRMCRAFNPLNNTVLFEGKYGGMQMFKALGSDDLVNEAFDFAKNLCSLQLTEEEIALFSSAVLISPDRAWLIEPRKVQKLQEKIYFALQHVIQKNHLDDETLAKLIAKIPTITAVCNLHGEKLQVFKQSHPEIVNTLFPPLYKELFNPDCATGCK

Mus musculus [2] = assay: Antiarthritic activity in collagen/complete freund's adjuvant-induced DBA/1 mouse model of arthritis assessed as reduction in clinical score at 3 mg/kg/day, po administered via gavage starting from 21 day post collagen/CFA challenge and measured up to 42 days; assay type: functional, organism-based
[3] = Cytotoxicity against human CD4-positive T cells assessed as reduction in cell viability at 100 nM; assay type: cell-based; conditions: 0.1 µM
[4] = target: T2, Nuclear receptor ROR-alpha (Homo sapiens) (UniProt P35398); assay: Inverse agonist activity at human full-length RORalpha expressed in Jurkat cells co-transfected with 5 copies of ROR response element after 18 hrs by luciferase based reporter gene assay; assay type: cell-based
T2 sequence (whole entry): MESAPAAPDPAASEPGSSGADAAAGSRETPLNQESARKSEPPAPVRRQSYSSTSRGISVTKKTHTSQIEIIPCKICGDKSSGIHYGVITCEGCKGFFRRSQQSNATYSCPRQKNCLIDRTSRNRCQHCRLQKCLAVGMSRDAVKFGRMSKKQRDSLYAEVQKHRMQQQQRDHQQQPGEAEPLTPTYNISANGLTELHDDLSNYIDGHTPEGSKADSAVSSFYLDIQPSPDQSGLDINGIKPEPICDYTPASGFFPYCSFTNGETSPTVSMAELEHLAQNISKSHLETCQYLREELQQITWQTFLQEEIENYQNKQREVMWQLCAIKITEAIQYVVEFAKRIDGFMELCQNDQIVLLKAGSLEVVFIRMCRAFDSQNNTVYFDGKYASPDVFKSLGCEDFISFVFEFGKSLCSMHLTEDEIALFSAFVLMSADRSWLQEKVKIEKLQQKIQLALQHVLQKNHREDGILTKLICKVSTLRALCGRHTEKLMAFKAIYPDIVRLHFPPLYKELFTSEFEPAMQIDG

Mus musculus [5] = assay: Antiarthritic activity in collagen/complete freund's adjuvant-induced DBA/1 mouse model of arthritis assessed as reduction in paw thickness at 3 mg/kg/day, po administered via gavage starting from 21 day post collagen/CFA challenge and measured up to 42 days; assay type: functional, organism-based

| SMILES | Activity [1] | Activity (Mus musculus [2]) | Activity [3] [%] | Activity [4] | Activity (Mus musculus [5]) |
| --- | --- | --- | --- | --- | --- |
| Cc1cc(-c2nc(-c3ccc(F)cc3)c3c(n2)[C@]2(C)C=C(C#N)C(=O)[C@H](C)[C@H]2CC3)ccn1 | inactive | Active | 10 to 15 | inactive | Active |
| CCC[C@H]1C(=O)C(C#N)=C[C@@]2(C)c3nc(-c4ccnc(C5CC5)c4)nc(-c4ccccc4F)c3CC[C@H]12 | inactive | – | – | inactive | – |
